Assay [1] relates to L6. Kind of assay: Inhibition of glucose uptake in rat L6 myocyte at 10 ng/ml after 24 hrs. In kind it is functional, cell-based.
In assay [2] the test system is L6. Description: Increase in PI3K mRNA expression in rat L6 cells at 100 ng/ml by RT-PCR. In kind it is functional, cell-based.
Assay [3] deals with L6. Kind of assay: Increase in GLUT4 mRNA expression in rat L6 cells at 50 uM by RT-PCR. In kind it is functional, cell-based.
The target of assay [4] is T1, Insulin receptor substrate 1 (Rattus norvegicus) (UniProt P35570).
T1 sequence (whole entry): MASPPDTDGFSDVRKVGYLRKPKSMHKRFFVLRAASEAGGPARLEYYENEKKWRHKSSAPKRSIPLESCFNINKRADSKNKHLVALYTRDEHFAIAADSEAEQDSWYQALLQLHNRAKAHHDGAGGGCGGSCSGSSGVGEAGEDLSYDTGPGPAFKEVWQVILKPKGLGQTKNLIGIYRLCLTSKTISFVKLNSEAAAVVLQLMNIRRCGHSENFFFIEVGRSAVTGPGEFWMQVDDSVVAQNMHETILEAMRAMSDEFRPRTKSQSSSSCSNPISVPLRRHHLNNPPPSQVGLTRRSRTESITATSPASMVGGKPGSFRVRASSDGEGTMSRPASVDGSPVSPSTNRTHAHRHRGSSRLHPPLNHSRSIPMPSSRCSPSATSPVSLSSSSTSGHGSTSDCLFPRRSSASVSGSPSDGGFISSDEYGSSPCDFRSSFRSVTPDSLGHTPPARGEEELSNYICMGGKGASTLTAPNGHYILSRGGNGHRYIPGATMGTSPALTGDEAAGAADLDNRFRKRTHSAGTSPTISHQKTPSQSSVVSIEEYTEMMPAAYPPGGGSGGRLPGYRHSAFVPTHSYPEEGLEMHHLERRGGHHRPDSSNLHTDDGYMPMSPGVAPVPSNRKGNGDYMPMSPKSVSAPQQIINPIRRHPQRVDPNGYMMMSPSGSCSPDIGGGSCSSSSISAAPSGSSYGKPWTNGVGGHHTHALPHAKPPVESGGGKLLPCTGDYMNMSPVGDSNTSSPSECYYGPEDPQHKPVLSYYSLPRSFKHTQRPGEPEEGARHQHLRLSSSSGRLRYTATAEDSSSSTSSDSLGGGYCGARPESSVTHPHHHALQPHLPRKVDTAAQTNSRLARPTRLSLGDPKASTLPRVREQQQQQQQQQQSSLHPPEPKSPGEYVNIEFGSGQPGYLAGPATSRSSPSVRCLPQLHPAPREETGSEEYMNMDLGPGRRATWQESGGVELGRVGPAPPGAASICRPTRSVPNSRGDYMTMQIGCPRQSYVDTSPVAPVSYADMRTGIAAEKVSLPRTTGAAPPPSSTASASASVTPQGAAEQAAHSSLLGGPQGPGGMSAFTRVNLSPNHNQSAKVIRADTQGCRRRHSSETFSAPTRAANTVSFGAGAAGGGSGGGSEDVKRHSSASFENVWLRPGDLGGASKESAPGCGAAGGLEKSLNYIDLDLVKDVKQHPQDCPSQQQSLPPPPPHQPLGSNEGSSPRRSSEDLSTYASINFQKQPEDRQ
Description: […] in rat L6 cells after 24 hrs by immunoprecipitation. In kind it is cell-based.

Assay [5] has as its target Insulin receptor (Rattus norvegicus) (UniProt P15127). Kind of assay: […] in rat L6 cells after 24 hrs by immunoprecipitation. The assay is classed as cell-based.
In assay [6] the test system is L6. Description: Inhibition of glucose uptake in rat L6 myocyte at 50 uM after 24 hrs. In kind it is functional. The following applies: L6, 24 h, values are per cent of control.
For assay [7], the system named is L6. Description: Increase in PI3K mRNA expression in rat L6 cells at 10 ng/ml by RT-PCR. The assay is classed as functional, cell-based.

The source made the active and inactive calls. The rule behind the calls is not given here.

As usually defined, the residual activity is the signal under treatment as a percentage of the control signal.

Sequence of Insulin receptor (Rattus norvegicus) (P15127 27-759 limits assumed): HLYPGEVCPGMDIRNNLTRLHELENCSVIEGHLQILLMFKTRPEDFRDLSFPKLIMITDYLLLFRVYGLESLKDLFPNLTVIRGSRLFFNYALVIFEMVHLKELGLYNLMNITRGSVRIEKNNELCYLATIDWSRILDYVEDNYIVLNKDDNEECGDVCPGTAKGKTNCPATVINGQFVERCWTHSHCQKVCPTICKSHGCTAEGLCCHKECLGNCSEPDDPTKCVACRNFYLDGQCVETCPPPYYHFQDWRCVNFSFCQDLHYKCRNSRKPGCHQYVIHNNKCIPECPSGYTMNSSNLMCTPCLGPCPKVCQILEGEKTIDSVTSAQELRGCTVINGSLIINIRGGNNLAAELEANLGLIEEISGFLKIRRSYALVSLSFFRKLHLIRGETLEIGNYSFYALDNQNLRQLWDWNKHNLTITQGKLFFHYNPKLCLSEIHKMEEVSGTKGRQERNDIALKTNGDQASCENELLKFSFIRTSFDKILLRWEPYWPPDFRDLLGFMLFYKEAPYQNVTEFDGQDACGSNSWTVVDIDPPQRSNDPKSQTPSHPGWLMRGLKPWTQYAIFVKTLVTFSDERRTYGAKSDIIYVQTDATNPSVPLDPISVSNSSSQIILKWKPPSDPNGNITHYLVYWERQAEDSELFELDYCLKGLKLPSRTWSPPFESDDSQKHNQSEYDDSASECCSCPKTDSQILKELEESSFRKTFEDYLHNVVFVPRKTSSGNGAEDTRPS
Sequence of Insulin receptor (Rattus norvegicus) (P15127 764-1383 limits assumed): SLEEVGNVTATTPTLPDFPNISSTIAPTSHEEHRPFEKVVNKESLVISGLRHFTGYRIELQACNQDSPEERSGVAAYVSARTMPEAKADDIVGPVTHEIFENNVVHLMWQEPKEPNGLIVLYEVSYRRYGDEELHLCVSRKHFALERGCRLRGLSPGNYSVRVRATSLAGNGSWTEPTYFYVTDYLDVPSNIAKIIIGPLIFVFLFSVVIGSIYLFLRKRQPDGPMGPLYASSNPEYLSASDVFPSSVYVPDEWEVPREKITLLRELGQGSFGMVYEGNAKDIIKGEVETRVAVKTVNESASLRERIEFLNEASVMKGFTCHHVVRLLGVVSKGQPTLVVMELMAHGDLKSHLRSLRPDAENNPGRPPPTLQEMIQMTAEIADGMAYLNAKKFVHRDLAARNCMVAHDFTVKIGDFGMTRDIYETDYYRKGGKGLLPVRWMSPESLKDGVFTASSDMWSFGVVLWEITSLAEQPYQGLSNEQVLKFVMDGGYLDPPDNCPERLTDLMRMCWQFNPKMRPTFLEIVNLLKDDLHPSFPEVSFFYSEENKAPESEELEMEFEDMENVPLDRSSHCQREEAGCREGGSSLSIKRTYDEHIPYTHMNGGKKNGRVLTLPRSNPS

For the compound `COC(=O)CC(C(=O)O)C1c2c(C(=O)O[C@H]3[C@H](OC(=O)c4cc(O)c(O)c(O)c4)O[C@H](COC(=O)c4cc(O)c(O)c(O)c4)[C@@H](O)[C@H]3OC(=O)c3cc(O)c(O)c(O)c3)cc(O)c(O)c2OC(=O)C1O` (stereo partly specified), the inhibition entry with L6 [1] was “Dose-dependent effect”. For the same compound, the outcome in the assay with L6 [2] and in the assay with L6 [3] was Active. Further, the inhibition result in assay [4] and in assay [5] was “Active” in each case.

In the case of `CN(CCOc1ccc(CC2SC(=O)NC2=O)cc1)c1ccccn1` (stereo unspecified) [ROSIGLITAZONE], the residual activity at 50 µM in the assay on L6 [6] was 240%.

Take `O=C(O)CC(C(=O)O)C1c2c(C(=O)O[C@H]3[C@H](OC(=O)c4cc(O)c(O)c(O)c4)O[C@H](COC(=O)c4cc(O)c(O)c(O)c4)[C@@H](O)[C@H]3OC(=O)c3cc(O)c(O)c(O)c3)cc(O)c(O)c2OC(=O)C1O` (stereo partly specified): the inhibition result in the assay on L6 [1] was “Dose-dependent effect”. The result in the assay on L6 [7] and in the assay on L6 [3] was Active. For the same compound, the inhibition result in assay [4] and in assay [5] was “Active” throughout.

For the origin of these results see ChEMBL document CHEMBL1165927, “Insulinomimetic activity of two new gallotannins from the fruits of Capparis moonii” (2010).
